From ChEMBL document CHEMBL1154224, “Spiropiperidine CCR5 antagonists” (Bioorg Med Chem Lett, 2009)

Assays:
[1] = biological target: C-C chemokine receptor type 5 (Homo sapiens, UniProt P51681); experiment: Displacement of [125I]RANTES from human CCR5 receptor co-transfected with Galphai6 in CHO cells; assay type: cell-based
[2] = test system: Human immunodeficiency virus 1; experiment: Antiviral activity against recombinant HIV1 virus infected in human JC53BL cells after 3 days; assay type: functional, organism-based; details: Human immunodeficiency virus 1, JC53BL, 72 h
[3] = Intrinsic clearance in human liver microsomes assessed per mg of protein; assay type: ADME, Microsome; details: liver microsomes
[4] = biological target: Cytochrome P450 3A4 (Homo sapiens, UniProt P08684); experiment: Inhibition of liver CYP3A4; assay type: ADME, tissue-based
[5] = biological target: T1, Cytochrome P450 1A2 (Homo sapiens, UniProt P05177); experiment: Inhibition of liver CYP1A2; assay type: ADME, tissue-based
T1 sequence (P05177 whole entry): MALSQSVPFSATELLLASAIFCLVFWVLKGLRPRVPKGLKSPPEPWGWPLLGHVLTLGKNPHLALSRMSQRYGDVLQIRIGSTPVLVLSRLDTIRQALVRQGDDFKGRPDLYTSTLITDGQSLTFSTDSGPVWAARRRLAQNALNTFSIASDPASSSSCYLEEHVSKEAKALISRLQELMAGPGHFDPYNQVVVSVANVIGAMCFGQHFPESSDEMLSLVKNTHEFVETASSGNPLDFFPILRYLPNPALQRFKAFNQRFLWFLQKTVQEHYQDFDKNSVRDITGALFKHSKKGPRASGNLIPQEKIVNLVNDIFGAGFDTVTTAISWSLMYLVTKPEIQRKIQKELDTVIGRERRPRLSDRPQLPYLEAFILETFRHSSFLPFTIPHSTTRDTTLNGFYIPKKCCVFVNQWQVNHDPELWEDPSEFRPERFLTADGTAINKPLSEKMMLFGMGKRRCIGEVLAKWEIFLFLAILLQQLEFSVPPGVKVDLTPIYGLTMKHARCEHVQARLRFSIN

[6] = biological target: Cytochrome P450 2C9 (Homo sapiens, UniProt P11712); experiment: Inhibition of liver CYP2C9; assay type: ADME, tissue-based
[7] = biological target: Cytochrome P450 2C19 (Homo sapiens, UniProt P33261); experiment: Inhibition of liver CYP2C19; assay type: ADME, tissue-based
[8] = biological target: Cytochrome P450 2D6 (Homo sapiens, UniProt P10635); experiment: Inhibition of liver CYP2D6; assay type: ADME, tissue-based
[9] = Fraction unbound in rat plasma; assay type: ADME, cell-free
[10] = Fraction unbound in dog plasma; assay type: ADME, cell-free, Canis lupus familiaris
[11] = Fraction unbound in monkey plasma; assay type: ADME, cell-free, Macaca mulatta; details: rhesus monkey
[12] = Cmax in rat at 1 mg/kg, po; assay type: ADME, organism-based; parameters: dose 1 mg/kg, route oral; details: in vivo
[13] = AUC in rat at 1 mg/kg, po; assay type: ADME, organism-based; parameters: dose 1 mg/kg, route oral; details: plasma
[14] = Clearance in rat at 1 mg/kg, iv; assay type: ADME, organism-based; parameters: dose 1 mg/kg, route intravenous; details: in vivo
[15] = Half life in rat at 1 mg/kg, iv; assay type: ADME, organism-based; parameters: dose 1 mg/kg, route intravenous; details: in vivo
[16] = Volume of distribution at steady state in rat at 1 mg/kg, iv; assay type: ADME, organism-based; parameters: dose 1 mg/kg, route intravenous; details: in vivo, read-out: Vdss
[17] = Oral bioavailability in rat at 1 mg/kg, po; assay type: ADME, organism-based; details: in vivo
[18] = Cmax in dog at 1 mg/kg, po; assay type: ADME, organism-based, Canis lupus familiaris; parameters: dose 1 mg/kg, route oral; details: in vivo
[19] = AUC in dog at 1 mg/kg, po; assay type: ADME, organism-based, Canis lupus familiaris; parameters: dose 1 mg/kg, route oral; details: plasma
[20] = test system: Canis familiaris; experiment: Clearance in dog at 1 mg/kg, iv; assay type: ADME, organism-based, Canis lupus familiaris; parameters: dose 1 mg/kg, route intravenous; details: in vivo
[21] = Half life in dog at 1 mg/kg, iv; assay type: ADME, organism-based, Canis lupus familiaris; parameters: dose 1 mg/kg, route intravenous; details: in vivo
[22] = Volume of distribution at steady state in dog at 1 mg/kg, iv; assay type: ADME, organism-based, Canis lupus familiaris; parameters: dose 1 mg/kg, route intravenous; details: in vivo, read-out: Vdss
[23] = Oral bioavailability in dog at 1 mg/kg, po; assay type: ADME, organism-based, Canis lupus familiaris; details: in vivo
[24] = Cmax in cynomolgus monkey at 1 mg/kg, po; assay type: ADME, organism-based, Macaca fascicularis; parameters: dose 1 mg/kg, route oral; details: in vivo
[25] = AUC in cynomolgus monkey at 1 mg/kg, po; assay type: ADME, organism-based, Macaca fascicularis; parameters: dose 1 mg/kg, route oral; details: plasma
[26] = Clearance in cynomolgus monkey at 1 mg/kg, iv; assay type: ADME, organism-based, Macaca fascicularis; parameters: dose 1 mg/kg, route intravenous; details: in vivo
[27] = Half life in cynomolgus monkey at 1 mg/kg, iv; assay type: ADME, organism-based, Macaca fascicularis; parameters: dose 1 mg/kg, route intravenous; details: in vivo
[28] = Volume of distribution at steady state in cynomolgus monkey at 1 mg/kg, iv; assay type: ADME, organism-based, Macaca fascicularis; parameters: dose 1 mg/kg, route intravenous; details: in vivo, read-out: Vdss
[29] = Oral bioavailability in cynomolgus monkey at 1 mg/kg, po; assay type: ADME, organism-based, Macaca fascicularis; details: in vivo
[30] = biological target: T2, C-C chemokine receptor type 1 (Homo sapiens, UniProt P32246); experiment: Binding affinity to human CCR1 receptor
T2 sequence (P32246 whole entry): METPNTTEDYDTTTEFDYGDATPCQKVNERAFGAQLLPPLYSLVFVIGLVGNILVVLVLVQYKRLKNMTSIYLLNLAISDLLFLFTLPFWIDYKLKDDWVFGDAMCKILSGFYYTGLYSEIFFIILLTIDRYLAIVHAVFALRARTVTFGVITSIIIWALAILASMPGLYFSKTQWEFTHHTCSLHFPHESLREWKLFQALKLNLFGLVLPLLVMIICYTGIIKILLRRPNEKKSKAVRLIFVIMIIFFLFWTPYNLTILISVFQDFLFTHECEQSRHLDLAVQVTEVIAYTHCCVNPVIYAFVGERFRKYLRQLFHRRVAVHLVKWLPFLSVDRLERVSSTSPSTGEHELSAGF

[31] = biological target: C-C chemokine receptor type 2 (Homo sapiens, UniProt P41597); experiment: Binding affinity to human CCR2b receptor
[32] = biological target: T3, C-C chemokine receptor type 3 (Homo sapiens, UniProt P51677); experiment: Binding affinity to human CCR3 receptor
T3 sequence (P51677 whole entry): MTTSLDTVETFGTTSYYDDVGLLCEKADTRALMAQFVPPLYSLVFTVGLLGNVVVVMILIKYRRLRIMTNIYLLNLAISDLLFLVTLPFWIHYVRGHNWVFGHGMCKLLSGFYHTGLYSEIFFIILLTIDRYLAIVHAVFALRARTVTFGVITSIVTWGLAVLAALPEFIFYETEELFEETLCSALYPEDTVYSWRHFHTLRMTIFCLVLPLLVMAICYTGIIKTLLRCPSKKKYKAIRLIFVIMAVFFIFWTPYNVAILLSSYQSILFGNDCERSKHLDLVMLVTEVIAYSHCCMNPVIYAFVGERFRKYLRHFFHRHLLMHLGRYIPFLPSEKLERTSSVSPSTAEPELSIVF

[33] = biological target: T4, C-C chemokine receptor type 4 (Homo sapiens, UniProt P51679); experiment: Binding affinity to human CCR4 receptor
T4 sequence (P51679 whole entry): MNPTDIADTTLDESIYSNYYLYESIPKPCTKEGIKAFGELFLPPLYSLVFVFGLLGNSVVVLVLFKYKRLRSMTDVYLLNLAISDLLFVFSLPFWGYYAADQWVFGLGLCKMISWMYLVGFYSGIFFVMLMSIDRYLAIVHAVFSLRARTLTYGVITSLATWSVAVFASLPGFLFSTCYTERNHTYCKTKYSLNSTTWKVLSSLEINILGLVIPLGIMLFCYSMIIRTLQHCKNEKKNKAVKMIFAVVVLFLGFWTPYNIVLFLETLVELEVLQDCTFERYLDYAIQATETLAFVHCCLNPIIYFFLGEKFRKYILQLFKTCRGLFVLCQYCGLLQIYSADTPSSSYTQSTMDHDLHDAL

[34] = biological target: T5, C-C chemokine receptor type 6 (Homo sapiens, UniProt P51684); experiment: Binding affinity to human CCR6 receptor
T5 sequence (P51684 whole entry): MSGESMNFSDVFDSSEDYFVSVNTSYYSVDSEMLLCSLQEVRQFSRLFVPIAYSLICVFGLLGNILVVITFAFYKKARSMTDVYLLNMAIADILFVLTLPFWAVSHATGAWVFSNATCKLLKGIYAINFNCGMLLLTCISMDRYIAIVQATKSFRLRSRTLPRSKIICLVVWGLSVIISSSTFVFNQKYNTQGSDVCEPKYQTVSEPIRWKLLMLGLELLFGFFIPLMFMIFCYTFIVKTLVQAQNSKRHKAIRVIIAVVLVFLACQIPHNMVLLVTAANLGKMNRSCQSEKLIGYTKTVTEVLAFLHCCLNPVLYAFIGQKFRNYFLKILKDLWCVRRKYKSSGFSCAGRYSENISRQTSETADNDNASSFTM

[35] = biological target: C-X-C chemokine receptor type 4 (Homo sapiens, UniProt P61073); experiment: Binding affinity to human CXCR4
[36] = biological target: Voltage-gated inwardly rectifying potassium channel KCNH2 (Homo sapiens, UniProt Q12809); experiment: (§1) Inhibition of human ERG
[37] = biological target: hERG (KCNH2) (Homo sapiens, UniProt Q12809); experiment: as §1; details: human
[38] = test system: Human immunodeficiency virus; experiment: Antiviral activity against R5-tropic HIV Ba-L infected in human PBMC cells assessed as inhibition of viral replication; assay type: functional, organism-based; details: Human immunodeficiency virus 1, Ba-L

C-X-C chemokine receptor type 4, sequence (P61073 whole entry): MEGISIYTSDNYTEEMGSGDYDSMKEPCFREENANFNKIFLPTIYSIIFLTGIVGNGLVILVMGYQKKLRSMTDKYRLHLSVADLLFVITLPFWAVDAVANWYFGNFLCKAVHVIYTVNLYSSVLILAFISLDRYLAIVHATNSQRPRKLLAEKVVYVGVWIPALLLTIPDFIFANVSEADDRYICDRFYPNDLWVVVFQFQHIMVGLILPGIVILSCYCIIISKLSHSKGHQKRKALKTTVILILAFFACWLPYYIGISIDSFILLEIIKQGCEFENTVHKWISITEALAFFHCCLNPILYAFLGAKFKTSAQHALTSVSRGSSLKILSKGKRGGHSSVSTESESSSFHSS
Cytochrome P450 2C19, sequence (P33261 whole entry): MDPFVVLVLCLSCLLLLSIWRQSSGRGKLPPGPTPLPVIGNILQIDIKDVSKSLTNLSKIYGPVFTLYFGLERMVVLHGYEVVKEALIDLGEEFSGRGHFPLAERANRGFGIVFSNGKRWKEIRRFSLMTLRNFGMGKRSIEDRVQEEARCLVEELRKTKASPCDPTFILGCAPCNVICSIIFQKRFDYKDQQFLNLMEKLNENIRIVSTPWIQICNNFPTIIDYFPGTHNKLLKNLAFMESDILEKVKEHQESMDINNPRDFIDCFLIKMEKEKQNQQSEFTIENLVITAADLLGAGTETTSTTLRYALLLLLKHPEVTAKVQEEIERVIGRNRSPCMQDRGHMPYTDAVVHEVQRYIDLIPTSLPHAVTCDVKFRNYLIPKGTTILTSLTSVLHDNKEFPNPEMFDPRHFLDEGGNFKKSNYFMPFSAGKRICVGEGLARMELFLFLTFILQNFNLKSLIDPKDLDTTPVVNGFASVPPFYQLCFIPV
Cytochrome P450 3A4, sequence (P08684 whole entry): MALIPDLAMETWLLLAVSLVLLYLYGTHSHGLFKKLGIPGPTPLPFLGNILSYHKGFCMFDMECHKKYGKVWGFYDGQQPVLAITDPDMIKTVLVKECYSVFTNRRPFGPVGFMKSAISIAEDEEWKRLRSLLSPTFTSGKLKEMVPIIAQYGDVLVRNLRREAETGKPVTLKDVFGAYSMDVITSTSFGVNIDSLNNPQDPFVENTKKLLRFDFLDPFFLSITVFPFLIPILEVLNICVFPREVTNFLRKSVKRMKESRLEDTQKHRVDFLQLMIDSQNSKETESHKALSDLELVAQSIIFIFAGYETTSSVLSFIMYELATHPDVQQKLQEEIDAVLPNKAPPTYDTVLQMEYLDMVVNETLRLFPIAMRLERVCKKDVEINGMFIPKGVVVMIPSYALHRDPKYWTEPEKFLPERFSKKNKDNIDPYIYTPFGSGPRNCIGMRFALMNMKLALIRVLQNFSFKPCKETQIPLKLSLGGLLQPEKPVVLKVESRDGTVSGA
Cytochrome P450 2C9, sequence (P11712 whole entry): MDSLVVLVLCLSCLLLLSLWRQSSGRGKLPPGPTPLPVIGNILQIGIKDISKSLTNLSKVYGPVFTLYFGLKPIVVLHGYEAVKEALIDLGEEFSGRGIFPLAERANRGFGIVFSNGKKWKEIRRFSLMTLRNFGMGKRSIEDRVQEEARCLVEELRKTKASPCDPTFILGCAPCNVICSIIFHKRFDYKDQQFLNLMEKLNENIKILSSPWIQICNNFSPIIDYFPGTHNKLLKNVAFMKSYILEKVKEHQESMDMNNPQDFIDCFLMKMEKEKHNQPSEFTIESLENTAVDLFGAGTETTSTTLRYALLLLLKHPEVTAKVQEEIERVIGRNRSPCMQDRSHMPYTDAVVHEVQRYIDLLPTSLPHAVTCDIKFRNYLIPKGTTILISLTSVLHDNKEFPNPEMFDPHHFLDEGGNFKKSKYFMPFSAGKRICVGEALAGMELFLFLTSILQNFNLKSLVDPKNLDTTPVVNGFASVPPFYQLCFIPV
Voltage-gated inwardly rectifying potassium channel KCNH2, sequence (Q12809 whole entry): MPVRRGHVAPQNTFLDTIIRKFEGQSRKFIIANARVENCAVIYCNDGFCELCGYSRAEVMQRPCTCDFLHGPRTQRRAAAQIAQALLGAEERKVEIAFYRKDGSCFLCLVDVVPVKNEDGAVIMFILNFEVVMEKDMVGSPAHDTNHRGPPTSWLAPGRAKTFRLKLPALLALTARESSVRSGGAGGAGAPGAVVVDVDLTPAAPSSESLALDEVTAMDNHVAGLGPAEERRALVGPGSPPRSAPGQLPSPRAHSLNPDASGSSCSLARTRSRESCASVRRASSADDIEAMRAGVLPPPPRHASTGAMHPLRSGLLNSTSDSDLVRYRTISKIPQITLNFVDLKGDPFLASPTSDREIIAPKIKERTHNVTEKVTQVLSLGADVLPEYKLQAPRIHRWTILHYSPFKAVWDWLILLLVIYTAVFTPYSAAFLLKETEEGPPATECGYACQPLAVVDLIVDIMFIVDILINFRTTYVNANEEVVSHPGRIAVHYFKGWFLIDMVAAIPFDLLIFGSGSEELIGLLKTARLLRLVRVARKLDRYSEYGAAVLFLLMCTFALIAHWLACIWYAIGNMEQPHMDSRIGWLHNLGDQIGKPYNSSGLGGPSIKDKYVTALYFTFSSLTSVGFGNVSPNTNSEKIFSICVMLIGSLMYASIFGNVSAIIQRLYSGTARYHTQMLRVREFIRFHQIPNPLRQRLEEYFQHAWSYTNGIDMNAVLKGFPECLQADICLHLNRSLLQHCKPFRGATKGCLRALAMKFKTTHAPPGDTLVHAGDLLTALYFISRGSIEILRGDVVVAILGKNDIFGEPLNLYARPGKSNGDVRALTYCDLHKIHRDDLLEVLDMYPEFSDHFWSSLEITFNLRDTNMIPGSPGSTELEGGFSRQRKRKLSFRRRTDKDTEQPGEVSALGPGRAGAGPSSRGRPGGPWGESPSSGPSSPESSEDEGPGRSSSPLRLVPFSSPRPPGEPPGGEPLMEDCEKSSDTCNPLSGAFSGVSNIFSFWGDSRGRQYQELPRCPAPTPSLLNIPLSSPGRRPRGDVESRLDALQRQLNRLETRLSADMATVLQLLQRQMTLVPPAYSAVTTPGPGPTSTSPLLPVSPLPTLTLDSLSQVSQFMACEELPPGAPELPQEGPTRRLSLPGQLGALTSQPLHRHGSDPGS
hERG (KCNH2), sequence (Q12809 whole entry): as above
C-C chemokine receptor type 5, sequence (P51681 whole entry): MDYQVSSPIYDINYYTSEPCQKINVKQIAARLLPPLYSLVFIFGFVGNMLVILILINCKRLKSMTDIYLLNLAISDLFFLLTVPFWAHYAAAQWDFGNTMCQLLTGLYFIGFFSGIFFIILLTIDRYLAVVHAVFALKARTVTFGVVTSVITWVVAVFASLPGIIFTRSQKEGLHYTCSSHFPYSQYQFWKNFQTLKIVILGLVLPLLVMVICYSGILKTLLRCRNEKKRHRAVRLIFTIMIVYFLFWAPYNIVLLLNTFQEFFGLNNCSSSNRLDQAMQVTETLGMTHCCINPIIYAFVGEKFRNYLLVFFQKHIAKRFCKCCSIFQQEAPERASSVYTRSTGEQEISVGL
C-C chemokine receptor type 2, sequence (P41597 whole entry): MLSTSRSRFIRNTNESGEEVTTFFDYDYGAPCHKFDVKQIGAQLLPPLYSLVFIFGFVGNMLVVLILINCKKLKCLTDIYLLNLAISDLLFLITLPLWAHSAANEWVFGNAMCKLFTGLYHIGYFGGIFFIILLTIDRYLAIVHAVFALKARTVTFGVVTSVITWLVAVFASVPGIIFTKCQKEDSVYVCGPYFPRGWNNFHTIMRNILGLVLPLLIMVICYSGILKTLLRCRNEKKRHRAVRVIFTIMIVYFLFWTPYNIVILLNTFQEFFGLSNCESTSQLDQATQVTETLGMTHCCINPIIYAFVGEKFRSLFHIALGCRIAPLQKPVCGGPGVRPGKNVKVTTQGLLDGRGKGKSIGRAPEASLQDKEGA

Structure (SMILES): CCCC[C@H]1CN(CC2CCOCC2)C(=O)OC12CCN(C1(C)CCN(C(=O)c3c(C)ncnc3C)CC1)CC2
- IC50 [1]: 0.025 µM
- IC50 [2]: 0.006 µM
- microsomal CLint [3]: 12 µL/min/mg
- Activity [4]: Not Active
- Activity [5]: Not Active
- Activity [6]: Not Active
- Activity [7]: Not Active
- Activity [8]: Not Active
- fraction unbound [9]: 0.32
- fraction unbound [10]: 0.13
- fraction unbound [11]: 0.04
- Cmax [12]: 13 ng/mL
- AUC [13]: 54 ng·h/mL
- clearance [14]: 52 mL/min/kg
- half-life [15]: 1.4 h
- Vd [16]: 3.8 L/kg
- bioavailability [17]: 10%
- Cmax [18]: 225 ng/mL
- AUC [19]: 700 ng·h/mL
- clearance [20]: 20 mL/min/kg
- half-life [21]: 2.9 h
- Vd [22]: 3.2 L/kg
- bioavailability [23]: 85%
- Cmax [24]: 42 ng/mL
- AUC [25]: 396 ng·h/mL
- clearance [26]: 19 mL/min/kg
- half-life [27]: 3.5 h
- Vd [28]: 3 L/kg
- bioavailability [29]: 42%
- IC50 [30]: > 50 µM
- IC50 [31]: > 50 µM
- IC50 [32]: > 50 µM
- IC50 [33]: > 50 µM
- IC50 [34]: > 50 µM
- IC50 [35]: > 50 µM
- IC50 [36]: 11.9 µM
- IC20 [37]: 2.9 µM
- IC50 [38]: 0.00018 µM
